From US9649300B2, “Inhibition of WNT, TGF beta and Hippo signaling pathways to treat cancer, organ fibrosis and metabolic disorders” (University of Pittsburgh—of the Commonwealth System of …, priority 2013, dated 2017)
Blank lines part the entries; values can stand above or below the molecule they belong to.

How the values were obtained:
Hippo pathway = experiment: TEAD luciferase reporter (8xGT-II) as readout for Hippo signaling; assay type: cell-based; details: for inhibition of Hippo signaling: FIG. 8; for activity of Hippo reporter: FIG. 5
Procedure: (§1) FIGS. 1A-1C. Screening for small molecules inhibitors of the Hippo pathway. FIG. 1A. Hippo associated luciferase reporter (8xGT-II) was used to screen a series of 30 thiadiazole derivatives. Cells transfected with the construct were incubated in the absence (c) or presence of the compounds at 10 μM for 24 hours. Luciferase activity expressed in arbitrary units (AU) was measured in protein extracts. Data represent average for three replicates ±SE. FIG. 1B. Structure of S21 compound. FIG. 1C. Activity of S21 on Hippo versus CMV-Luciferase reporter measured as described above.
(§2) FIG. 2. S21 as a common inhibitor of Wnt, TGF beta and Hippo. 293 cells were transfected with luciferase reporters corresponding to each pathway and then exposed to S21, the Wnt inhibitor Pyrvinium (PYR) or the TGF beta inhibitor SB-431 at the indicated concentrations. After 24 hours, the cells were lysed and luciferase activity measured. Data represent average of three replicates ±SE.
(§3) FIG. 5. Effect of S21 versus Pirfenidone on activity of Wnt, TGF beta and Hippo reporters. 293 cells were transfected with luciferase reporters corresponding to the three pathways and then incubated with the indicated concentration of S21 or Pirfenidone for 24 hours. Luciferase activity was measured in the protein extract. Each point represents average of three determinations ±SE.
(§4) A TEAD luciferase reporter system was used as a readout for Hippo signaling, to screen a series of thiadiazole derivatives synthesized in our laboratory. For this, 293 cells transfected with the reporter construct were incubated in the absence or the presence of individual compounds at 10 μM concentration each for 24 hours. Proteins were then extracted and used as a source of enzyme of luciferase activity.

melanoma cells WM266 [1] = experiment: Tumor xenograft mouse model; assay type: in vivo
Procedure: FIGS. 9A-9B. Effect of C19 (mg/Kg) on tumor growth (FIG. 9A) and body weight (FIG. 9B). Data represents 7 replicates ±SE. *p<0.05., **p<0.01.
To obtain information regarding the efficacy of C19 in a tumor xenograft mouse model, nude mice (strain CD1) were injected subcutaneously with melanoma cells WM266. After tumors became palpable (˜5 mm in diameter), the mice were randomized into control and treatment groups (n=7). The control group was injected intraperitoneally with the vehicle (DMSO 3% in 200 μl of DMEM) and the treatment groups were injected with increasing doses of C19 (in mg/Kg) dissolved in 200 μl of vehicle solution. The animals received 3 injections starting on day 15 and separated by three days. Tumor volumes and body weight were measured on a daily basis.

AMPK = experiment: Phosphorylation (activation) of AMPK; assay type: cell-based; details: for activation of AMPK: FIG. 8
Procedure: (§5) FIGS. 10A-10F. FIGS. 10A and 10B. Dose and time dependent effects of C19 on phosphorylation of AMPK. In FIG. 10B, C19 was used at 5 μM. FIG. 10C. Effect of AICAR on phosphorylation of AMPK. FIG. 10D. Confirmation in different cell lines. FIGS. 10E and 10F. Effect of C19 on phosphorylation of downstream AMPK targets ACC and UIK1.
(§6) Investigation of the mechanism by which C19 exert its activity led to the discovery that, in addition to its effect on MST/Lats, this compound acts as a potent activator of the metabolic enzyme and tumor suppressor kinase AMPK (FIG. 10).

ACC = experiment: Phosphorylation of downstream AMPK target ACC; assay type: cell-based; details: FIG. 10E
Procedure: as §5, §6

Ulk1 = experiment: Phosphorylation of downstream AMPK target Ulk1; assay type: cell-based; details: FIG. 10F
Procedure: as §5, §6

[2] = system: luciferase driven by the CMV promoter; experiment: CMV-Luciferase reporter (specificity control); assay type: cell-based
Procedure: as §1, §4

Wnt = Wnt luciferase reporter in 293 cells; assay type: cell-based; details: for activity of Wnt reporter: FIG. 5
Procedure: as §2, §3
(§7) By comparison, none of Wnt or TGF beta inhibitors had affected the Hippo pathway reporter.

TGF beta = TGF beta luciferase reporter in 293 cells; assay type: cell-based; details: for activity of TGF beta reporter: FIG. 5
Procedure: as §2, §3, §7

MST1 = target: T1, MST1 (Homo sapiens, UniProt Q13043); experiment: Western blot, phosphorylation of core kinase MST1; assay type: cell-based; details: dose-dependent, FIG. 3A
T1 construct: endogenous in cells
T1 sequence (Q13043 1-487): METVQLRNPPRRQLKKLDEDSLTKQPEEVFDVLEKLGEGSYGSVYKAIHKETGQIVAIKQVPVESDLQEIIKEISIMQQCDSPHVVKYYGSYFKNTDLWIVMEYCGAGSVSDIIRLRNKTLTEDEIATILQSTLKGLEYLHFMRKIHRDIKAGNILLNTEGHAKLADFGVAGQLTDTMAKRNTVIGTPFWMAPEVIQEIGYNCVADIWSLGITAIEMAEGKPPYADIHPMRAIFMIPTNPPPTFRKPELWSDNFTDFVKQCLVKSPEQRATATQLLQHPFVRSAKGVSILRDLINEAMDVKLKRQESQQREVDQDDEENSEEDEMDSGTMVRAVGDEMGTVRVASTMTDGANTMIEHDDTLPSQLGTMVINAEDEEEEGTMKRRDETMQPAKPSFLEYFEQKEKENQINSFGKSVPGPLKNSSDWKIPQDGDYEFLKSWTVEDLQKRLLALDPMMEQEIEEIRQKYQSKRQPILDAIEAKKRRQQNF
Procedure: (§8) FIGS. 3A-3B. Effect of S21 on key elements of the Hippo pathway. Western blot analysis was carried out to determine the effect of S21 on expression and phosphorylation of MST/Lats (FIG. 3A) and nucleocytoplasmic localization of YAP and beta catenin (FIG. 3B).
(§9) To gain insights into the mechanism(s) by which S21 inhibits the Hippo pathway, its effect on activation of the core kinases MST1 and Lats1 was analyzed.

Lats1 = target: T2, Lats1 (Homo sapiens, UniProt O95835); experiment: Western blot, phosphorylation of core kinase Lats1; assay type: cell-based; details: dose-dependent, FIG. 3A
T2 construct: endogenous in cells
T2 sequence (O95835 1-1130): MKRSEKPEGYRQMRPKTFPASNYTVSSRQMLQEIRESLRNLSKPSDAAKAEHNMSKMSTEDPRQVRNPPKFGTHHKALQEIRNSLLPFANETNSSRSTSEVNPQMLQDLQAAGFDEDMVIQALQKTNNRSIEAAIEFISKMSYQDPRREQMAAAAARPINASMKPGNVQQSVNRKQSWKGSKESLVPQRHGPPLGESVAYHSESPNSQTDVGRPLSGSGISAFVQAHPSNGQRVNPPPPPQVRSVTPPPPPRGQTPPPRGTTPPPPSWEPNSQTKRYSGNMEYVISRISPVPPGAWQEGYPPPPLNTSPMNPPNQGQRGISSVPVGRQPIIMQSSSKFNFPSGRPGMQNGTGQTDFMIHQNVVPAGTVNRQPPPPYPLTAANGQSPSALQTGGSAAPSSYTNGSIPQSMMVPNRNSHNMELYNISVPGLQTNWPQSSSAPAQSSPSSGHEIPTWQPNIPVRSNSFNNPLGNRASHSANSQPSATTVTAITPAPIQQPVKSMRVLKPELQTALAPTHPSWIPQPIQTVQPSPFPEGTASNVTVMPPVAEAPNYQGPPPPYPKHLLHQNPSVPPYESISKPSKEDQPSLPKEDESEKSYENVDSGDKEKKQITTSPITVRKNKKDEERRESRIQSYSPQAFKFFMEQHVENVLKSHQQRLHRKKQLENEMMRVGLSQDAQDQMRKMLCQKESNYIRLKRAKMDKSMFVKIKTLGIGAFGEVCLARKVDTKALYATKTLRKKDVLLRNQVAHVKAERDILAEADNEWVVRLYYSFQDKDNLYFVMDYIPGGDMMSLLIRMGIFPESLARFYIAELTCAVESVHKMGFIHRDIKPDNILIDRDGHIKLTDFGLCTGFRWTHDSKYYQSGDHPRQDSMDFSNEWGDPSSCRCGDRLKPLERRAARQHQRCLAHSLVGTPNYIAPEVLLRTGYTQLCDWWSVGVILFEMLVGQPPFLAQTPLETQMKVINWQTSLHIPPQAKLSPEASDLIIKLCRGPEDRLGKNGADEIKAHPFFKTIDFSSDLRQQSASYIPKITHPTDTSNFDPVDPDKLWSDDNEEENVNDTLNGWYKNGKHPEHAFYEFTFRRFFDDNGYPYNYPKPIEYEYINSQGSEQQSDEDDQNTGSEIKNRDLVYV
Procedure: as §8, §9

YAP = experiment: Western blot, nucleocytoplasmic localization of YAP; assay type: cell-based; details: FIG. 3B
Procedure: as §8, §9

beta catenin = experiment: Western blot, nucleocytoplasmic localization of beta catenin; assay type: cell-based; details: FIG. 3B
Procedure: as §8, §9

melanoma cells WM266 [3] = experiment: Western blots of EMT genes and downstream target genes; assay type: cell-based; details: WM266, 24 hours
Procedure: (§10) FIGS. 4A-4D. Inhibition of EMT, cell migration, proliferation and resistance to therapy by S21. FIG. 4A. Western blots showing inhibition of various EMT genes in melanoma cells WM266 exposed to the indicated concentrations of S21 for 24 hours. FIG. 4B. Cell monolayer scratch assay depicting inhibition of cell migration by S21. FIG. 4C. Effect of S21 on cell proliferation measured after 5 days of incubation. FIG. 4D. Cell response to doxorubicin was measured in the presence of and absence of S21. Data in panels C and D represent average of three determinations ±SE.
(§11) Future studies will be needed to elucidate the underlying mechanism.

cell migration = experiment: Cell monolayer scratch assay; assay type: cell-based; details: FIG. 4B
Procedure: as §10, §11

[4] = system: three melanoma and one colon cancer cell lines; experiment: Cell proliferation after 5 days of incubation; assay type: cell-based
Procedure: as §10, §11

melanoma cell = experiment: Cell response to doxorubicin with and without S21; assay type: cell-based; details: FIG. 4D
Procedure: as §10, §11

fibroblasts = experiment: Expression of fibrotic markers (QPCR, Western blot); assay type: cell-based; details: RNA and protein level
Description: FIGS. 6A-6B. S21 inhibits expression of pro-fibrotic and pro-EMT genes. FIG. 6A. QPCR analysis depicting expression levels of pro-EMT ad fibrosis genes in the absence and the presence of S21. FIG. 6B. Western blot analysis showing the effect of S21 on expression of fibronectin, collagen and vimentin. Beta catenin was used as a loading control.

[5] = oral, eight-week-old male untrained mice; cited from earlier work
[6] = tested for up to 100 μM, data not shown

SMILES: OCCCCOc1nsnc1-c1ccc(Cl)c(Cl)c1 [C19, 4-((4-(3,4-dichlorophenyl)-1,2,5-thiadiazol-3-yl)oxy)butan-1-ol]
inhibition of Hippo signaling (Hippo pathway): inhibition
inhibition of tumor growth (melanoma cells WM266 [1]; 20 mg/Kg intraperitoneal, 3 injections from day 15): about 90%
tumor growth (melanoma cells WM266 [1]; intraperitoneal, increasing doses, 3 injections from day 15): suppresses tumor growth in a dose dependent manner
signs of toxicity or death (melanoma cells WM266 [1]; throughout the experiment): No signs of toxicity or death
body weight compared to controls (melanoma cells WM266 [1]; treatment groups, FIG. 9B): did not change significantly
activation of AMPK (AMPK): activation
potency on AMPK relative to AICAR (AMPK; FIG. 10C): at least 10 times
effect on AMPK in different cell lines (AMPK; FIG. 10D): validated
phosphorylation (activation) of AMPK (AMPK; concentration and time dependent, FIGS. 10A and 10B): induced phosphorylation
phosphorylation of ACC (ACC): induced phosphorylation
phosphorylation of Ulk1 (Ulk1): induced phosphorylation

SMILES: OCCCCOc1nsnc1-c1ccc(Cl)cc1 [S21]
inhibition of TEAD luciferase reporter activity (Hippo signaling) (Hippo pathway; 293 cells, 10 μM, 24 hours): strongest inhibition
activity of Hippo reporter (Hippo pathway; 293 cells, 24 hours): dose dependent inhibition
inhibition of Hippo signaling (Hippo pathway): inhibition
inhibition of luciferase driven by the CMV promoter [2]: did not inhibit
inhibition of Wnt signaling reporter (Wnt; 293 cells, 24 hours, FIG. 2): remarkably inhibited
activity of Wnt reporter (Wnt; 293 cells, 24 hours): dose dependent inhibition
inhibition of TGF beta signaling reporter (TGF beta; 293 cells, 24 hours, FIG. 2): remarkably inhibited
activity of TGF beta reporter (TGF beta; 293 cells, 24 hours): dose dependent inhibition
phosphorylation of MST1 (MST1): induced phosphorylation
phosphorylation of Lats1 (Lats1): induced phosphorylation
nuclear and cytoplasmic levels of YAP (YAP): reduced nuclear localization and enhanced cytoplasmic levels
nuclear and cytoplasmic levels of beta catenin (beta catenin): reduced nuclear localization and enhanced cytoplasmic levels
expression of EMT-associated gene Zeb1 (melanoma cells WM266 [3]): strongly inhibits
level of Cyclin D (melanoma cells WM266 [3]): reduced
level of Hes (melanoma cells WM266 [3]): reduced
level of Myc (melanoma cells WM266 [3]): reduced
cell migration (cell migration): strongly inhibited
response of metastatic WM266 versus non-metastatic WM115 ([4]; melanoma cell lines): responded better
anti-proliferative action ([4]; three melanoma and one colon cancer cell lines): anti-proliferative action
melanoma cell response to doxorubicin in presence of compound (melanoma cell): significantly enhanced
expression of Collagen (fibroblasts): dose dependent decrease
expression of Finbronectin (fibroblasts): dose dependent decrease
activation of AMPK (AMPK): activation

SMILES: NC(=O)c1ncn([C@@H]2O[C@H](CO)[C@@H](O)[C@H]2O)c1N [AICAR, 5-aminoimidazole-4-carboxamide 1-D-ribonucleoside]
increase in endurance without exercise [5]: 44%

activity of Hippo reporter (Hippo pathway; 293 cells, 24 hours): without effect
inhibition of Hippo reporter (Hippo pathway; [6]): no inhibition was detected
SMILES: Cc1ccc(=O)n(-c2ccccc2)c1 [Pirfenidone, reference compound]
activity of Wnt reporter (Wnt; 293 cells, 24 hours): without effect
inhibition of Wnt reporter (Wnt; [6]): no inhibition was detected
activity of TGF beta reporter (TGF beta; 293 cells, 24 hours): without effect
inhibition of TGF beta reporter (TGF beta; [6]): no inhibition was detected
